In US20250368625A1, “PIPERAZINES” (Grünenthal GmbH, priority 2024, published 2025) one finds EC50 data, which are given here for 34 molecules.

SMILES strings stand for the structures.

T1 sequence (P31391 whole entry): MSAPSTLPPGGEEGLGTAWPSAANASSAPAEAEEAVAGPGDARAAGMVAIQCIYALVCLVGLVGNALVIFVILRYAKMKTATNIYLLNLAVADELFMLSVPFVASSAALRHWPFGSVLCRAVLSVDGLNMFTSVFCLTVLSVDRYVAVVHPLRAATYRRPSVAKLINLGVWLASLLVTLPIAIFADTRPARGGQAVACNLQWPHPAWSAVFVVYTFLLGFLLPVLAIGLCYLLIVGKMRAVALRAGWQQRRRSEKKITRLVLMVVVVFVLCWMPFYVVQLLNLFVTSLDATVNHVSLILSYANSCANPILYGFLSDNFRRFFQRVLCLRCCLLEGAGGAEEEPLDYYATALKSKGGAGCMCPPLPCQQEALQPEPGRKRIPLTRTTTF

The test addresses T1, human SSTR4 (Homo sapiens, UniProt P31391).
T1 construct: expressed in transfected cells; host or cells: CHO-K1
Kind of test: hSSTR4 cAMP assay (cAMP accumulation, LANCE Ultra cAMP kit, CHO-K1 human SSTR4 Gi cell line). Type of test: cell-based. The note with it: functional agonism, forskolin 10 μM stimulated CHO-K1 human SSTR4 Gi cells, 30 min at 25° C., at least duplicate, averaged; read-out: hSSTR4 EC50. The method in brief:
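CHO-K1 cells expressing human SSTR4 (Gi), pre-cultured 18-20 h or thawed and used directly, stimulated with 10 μM forskolin plus test agonist in concentration series, 30 min at 25° C. Lysate cAMP read by TR-FRET (Eu-cAMP tracer/ULight-anti-cAMP, 1 h, 25° C). Normalized to forskolin-only and forskolin+100 nM SST14 controls, 4-parameter fit; ≥duplicate, averaged.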
Turning to `Cc1cccn2c(C(C)(C)NC(=O)[C@@H]3CN(C(=O)CC4CCOCC4)CCN3)ncc12` [SC-079, (S)-N-(2-(8-methylimidazo[1,5-a]pyridin-3-yl)propan-2-yl)-4-(2-(tetrahydro-2H-pyran-4-yl)acetyl)piperazine-2-carboxamide], the EC50 is 15000 nM.

Regarding `Cc1cccn2c(C(C)(C)NC(=O)[C@@H]3CN(C(=O)C4CC(F)(F)C4)CCN3)ncc12` [SC-080, (S)-4-(3,3-difluorocyclobutane-1-carbonyl)-N-(2-(8-methylimidazo[1,5-a]pyridin-3-yl)propan-2-yl)piperazine-2-carboxamide], the EC50 is greater than 10000 nM.

On to `Cc1cccn2c(C(C)(C)NC(=O)[C@@H]3CN(C(=O)c4cnn(C(C)C)c4)CCN3)ncc12` [SC-081, (S)-4-(1-isopropyl-1H-pyrazole-4-carbonyl)-N-(2-(8-methylimidazo[1,5-a]pyridin-3-yl)propan-2-yl)piperazine-2-carboxamide], for which the EC50 was greater than 10000 nM.

As for `Cc1cccn2c(C(C)(C)NC(=O)[C@@H]3CN(C(=O)c4ccnn4C)CCN3)ncc12` [SC-082, (S)-4-(1-methyl-1H-pyrazole-5-carbonyl)-N-(2-(8-methylimidazo[1,5-a]pyridin-3-yl)propan-2-yl)piperazine-2-carboxamide], the EC50 amounted to 5400 nM.

With `Cc1cccn2c(C(C)(C)NC(=O)[C@@H]3CN(C(=O)c4cnn(C)c4)CCN3)ncc12` [SC-083, (S)-4-(1-methyl-1H-pyrazole-4-carbonyl)-N-(2-(8-methylimidazo[1,5-a]pyridin-3-yl)propan-2-yl)piperazine-2-carboxamide], the half-maximal effective concentration (EC50) was found to be 6700 nM.

With `Cc1cccn2c(C(C)(C)NC(=O)[C@@H]3CN(C(=O)c4ccn(C)n4)CCN3)ncc12` [SC-084, (S)-4-(1-methyl-1H-pyrazole-3-carbonyl)-N-(2-(8-methylimidazo[1,5-a]pyridin-3-yl)propan-2-yl)piperazine-2-carboxamide], the EC50 is greater than 10000 nM.

Consider `Cc1cccn2c(C(C)(C)NC(=O)[C@@H]3CNCCN3Cc3ccccc3)ncc12` [SC-085, (S)-1-benzyl-N-(2-(8-methylimidazo[1,5-a]pyridin-3-yl)propan-2-yl)piperazine-2-carboxamide], for which the EC50 worked out at 0.11 nM.

For the molecule `Cc1cccn2c(C(C)(C)NC(=O)[C@@H]3CNCCN3CC3CCOCC3)ncc12` [SC-086, (S)-N-(2-(8-methylimidazo[1,5-a]pyridin-3-yl)propan-2-yl)-1-((tetrahydro-2H-pyran-4-yl)methyl)piperazine-2-carboxamide], the EC50 is 0.16 nM.

Regarding `Cc1cccn2c(C(C)(C)NC(=O)[C@@H]3CNCCN3CC3CCC(F)(F)CC3)ncc12` [SC-087, (S)-1-((4,4-difluorocyclohexyl)methyl)-N-(2-(8-methylimidazo[1,5-a]pyridin-3-yl)propan-2-yl)piperazine-2-carboxamide], the EC50 came out at 0.27 nM.

Regarding `Cc1ccc(CN2CCNC[C@H]2C(=O)NC(C)(C)c2ncc3c(C)cccn23)cn1` [SC-088, (S)-N-(2-(8-methylimidazo[1,5-a]pyridin-3-yl)propan-2-yl)-1-((6-methylpyridin-3-yl)methyl)piperazine-2-carboxamide], the EC50 was 0.79 nM.

Take `Cc1cccn2c(C(C)(C)NC(=O)[C@@H]3CNCCN3CC3CC(F)(F)C3)ncc12` [SC-089, (S)-1-((3,3-difluorocyclobutyl)methyl)-N-(2-(8-methylimidazo[1,5-a]pyridin-3-yl)propan-2-yl)piperazine-2-carboxamide]: the half-maximal effective concentration (EC50) was 0.55 nM.

Take `Cc1cccn2c(C(C)(C)NC(=O)[C@@H]3CNCCN3Cc3cnn(C)c3)ncc12` [SC-090, (S)-1-((1-methyl-1H-pyrazol-4-yl)methyl)-N-(2-(8-methylimidazo[1,5-a]pyridin-3-yl)propan-2-yl)piperazine-2-carboxamide]: the EC50 came to 1.8 nM.

As for `Cc1cc(CN2CCNC[C@H]2C(=O)NC(C)(C)c2ncc3c(C)cccn23)ccn1` [SC-091, (S)-N-(2-(8-methylimidazo[1,5-a]pyridin-3-yl)propan-2-yl)-1-((2-methylpyridin-4-yl)methyl)piperazine-2-carboxamide], the EC50 stood at 0.06 nM.

In the case of `COCCN1CCNC[C@H]1C(=O)NC(C)(C)c1ncc2c(C)cccn12` [SC-092, (S)-1-(2-methoxyethyl)-N-(2-(8-methylimidazo[1,5-a]pyridin-3-yl)propan-2-yl)piperazine-2-carboxamide], the EC50 is 1.1 nM.

Regarding `Cc1cccc2c(C(C)(C)NC(=O)[C@@H]3CNCCN3C)n[nH]c12` [SC-094, (S)-1-methyl-N-(2-(7-methyl-1H-indazol-3-yl)propan-2-yl)piperazine-2-carboxamide], the EC50 was found to be 0.21 nM.

On to `Cc1cccc2c(C(C)(C)NC(=O)[C@@H]3CN(C)CCN3)n[nH]c12` [SC-095, (S)-4-methyl-N-(2-(7-methyl-1H-indazol-3-yl)propan-2-yl)piperazine-2-carboxamide], for which the concentration for a half-maximal effect (EC50) came to 2.9 nM.

Regarding `Cc1cccc2c(C(C)(C)NC(=O)[C@@H]3CNCCN3CC3CCOCC3)n[nH]c12` [SC-096, (S)-N-(2-(7-methyl-1H-indazol-3-yl)propan-2-yl)-1-((tetrahydro-2H-pyran-4-yl)methyl)piperazine-2-carboxamide], the EC50 amounted to 0.46 nM.

In the case of `COCCN1CCNC[C@H]1C(=O)NC(C)(C)c1n[nH]c2c(C)cccc12` [SC-097, (S)-1-(2-methoxyethyl)-N-(2-(7-methyl-1H-indazol-3-yl)propan-2-yl)piperazine-2-carboxamide], the EC50 amounted to 1.2 nM.

Turning to `Cc1cccc2c(C(C)(C)NC(=O)[C@@H]3CNCCN3CC(F)(F)F)n[nH]c12` [SC-098, (S)-N-(2-(7-methyl-1H-indazol-3-yl)propan-2-yl)-1-(2,2,2-trifluoroethyl)piperazine-2-carboxamide], the EC50 was 0.07 nM.

For the molecule `CN1CCN[C@H](C(=O)NC(C)(C)c2nn(C)c3ccccc23)C1` [SC-099, (S)-4-methyl-N-(2-(1-methyl-1H-indazol-3-yl)propan-2-yl)piperazine-2-carboxamide], the half-maximal effective concentration (EC50) was 21 nM.

Turning to `CN1CCNC[C@H]1C(=O)NC(C)(C)c1nn(C)c2ccccc12` [SC-100, (S)-1-methyl-N-(2-(1-methyl-1H-indazol-3-yl)propan-2-yl)piperazine-2-carboxamide], the EC50 is 0.91 nM.

For `COCCN1CCNC[C@H]1C(=O)NC(C)(C)c1nn(C)c2ccccc12` [SC-101, (S)-1-(2-methoxyethyl)-N-(2-(1-methyl-1H-indazol-3-yl)propan-2-yl)piperazine-2-carboxamide], the EC50 worked out at 5.9 nM.

On to `Cn1nc(C(C)(C)NC(=O)[C@@H]2CNCCN2CC(F)(F)F)c2ccccc21` [SC-102, (S)-N-(2-(1-methyl-1H-indazol-3-yl)propan-2-yl)-1-(2,2,2-trifluoroethyl)piperazine-2-carboxamide], for which the 50% effective concentration (EC50) worked out at 0.84 nM.

Regarding `Cn1nc(C(C)(C)NC(=O)[C@@H]2CNCCN2CC2CCOCC2)c2ccccc21` [SC-103, (S)-N-(2-(1-methyl-1H-indazol-3-yl)propan-2-yl)-1-((tetrahydro-2H-pyran-4-yl)methyl)piperazine-2-carboxamide], the concentration giving a half-maximal response (EC50) was determined as 0.22 nM.

For the molecule `CN1CCNC[C@H]1C(=O)NC(C)(C)c1ncc2c(Cl)cccn12` [SC-104, (S)-N-(2-(8-chloroimidazo[1,5-a]pyridin-3-yl)propan-2-yl)-1-methylpiperazine-2-carboxamide], the EC50 was 0.9 nM.

Regarding `CN1CCN[C@H](C(=O)NC(C)(C)c2ncc3c(Cl)cccn23)C1` [SC-105, (S)-N-(2-(8-chloroimidazo[1,5-a]pyridin-3-yl)propan-2-yl)-4-methylpiperazine-2-carboxamide], the EC50 is 31 nM.

In the case of `Cn1cc(CN2CCNC[C@H]2C(=O)NC(C)(C)c2ncc3c(Cl)cccn23)cn1` [SC-106, (S)-N-(2-(8-chloroimidazo[1,5-a]pyridin-3-yl)propan-2-yl)-1-((1-methyl-1H-pyrazol-4-yl)methyl)piperazine-2-carboxamide], the EC50 worked out at 1.5 nM.

On to `CC(C)(NC(=O)[C@@H]1CNCCN1CC1CC(F)(F)C1)c1ncc2c(Cl)cccn12` [SC-107, (S)-N-(2-(8-chloroimidazo[1,5-a]pyridin-3-yl)propan-2-yl)-1-((3,3-difluorocyclobutyl)methyl)piperazine-2-carboxamide], for which the EC50 was 0.76 nM.

As to `CC(C)(NC(=O)[C@@H]1CNCCN1)c1ncc2c(Cl)cccn12` [SC-108, (S)-N-(2-(8-chloroimidazo[1,5-a]pyridin-3-yl)propan-2-yl)piperazine-2-carboxamide], the EC50 came to 19 nM.

`CN1CCNC[C@@H]1C(=O)NC(C)(C)c1ncc2c(Cl)cccn12` [SC-109, (R)-N-(2-(8-chloroimidazo[1,5-a]pyridin-3-yl)propan-2-yl)-1-methylpiperazine-2-carboxamide]: the half-maximal effective concentration (EC50) was found to be 1600 nM.

Consider `CN1CCNC[C@H]1C(=O)NC(C)(C)c1ncc2c(C(F)(F)F)cccn12` [SC-110, (S)-1-methyl-N-(2-(8-(trifluoromethyl)imidazo[1,5-a]pyridin-3-yl)propan-2-yl)piperazine-2-carboxamide], for which the EC50 was 36 nM.

With `Cn1cc(CN2CCNC[C@H]2C(=O)NC(C)(C)c2ncc3c(C(F)(F)F)cccn23)cn1` [SC-111, (S)-1-((1-methyl-1H-pyrazol-4-yl)methyl)-N-(2-(8-(trifluoromethyl)imidazo[1,5-a]pyridin-3-yl)propan-2-yl)piperazine-2-carboxamide], the EC50 is 94 nM.

Turning to `CN1CCN[C@H](C(=O)NC(C)(C)c2ncc3c(C(F)(F)F)cccn23)C1` [SC-112, (S)-4-methyl-N-(2-(8-(trifluoromethyl)imidazo[1,5-a]pyridin-3-yl)propan-2-yl)piperazine-2-carboxamide], the concentration for a half-maximal effect (EC50) came to 490 nM.

With `CC(C)(NC(=O)[C@@H]1CNCCN1CC1CC(F)(F)C1)c1ncc2c(C(F)(F)F)cccn12` [SC-113, (S)-1-((3,3-difluorocyclobutyl)methyl)-N-(2-(8-(trifluoromethyl)imidazo[1,5-a]pyridin-3-yl)propan-2-yl)piperazine-2-carboxamide], the 50% effective concentration (EC50) turned out to be 26 nM.
